Test results published in the supplement of paper PMC4862054.

The molecules below were run on MFM-223 (assay: normalised response (% of control), CellTiter-Glo; higher = more viable cells (100 = DMSO, 0 = benzethonium chloride kill control)). Conditions: incubation time: 72 h.
Procedure: (§1)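 DSRT, 72 h incubation, CellTox Green / CellTiter-Glo readout. Signal is normalised to DMSO and benzethonium chloride controls. Value is the normalised response at dose 3.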

Structure (SMILES) | normalised response [%]
CC1(C)NC(=O)N(c2ccc([N+](=O)[O-])c(C(F)(F)F)c2)C1=O [Nilutamide] (100 nM) | 110

The molecules below were run on MDA-MB-468 in the same assay as above. Conditions: incubation time: 72 h.
Procedure: as §1

Structure (SMILES) | normalised response [%]
CCCCCCCCCCCCCCCCCCOP(=O)([O-])OC1CC[N+](C)(C)CC1 [Perifosine] (25 nM) | 100
C=C(c1ccc(C(=O)O)cc1)c1cc2c(cc1C)C(C)(C)CCC2(C)C [Bexarotene] (100 nM) | 104
CS(=O)(=O)c1ccc(C2=C(c3ccccc3)C(=O)OC2)cc1 [Rofecoxib] (100 nM) | 104
COc1cc2nccc(Oc3ccc(NC(=O)C4(C(=O)Nc5ccc(F)cc5)CC4)cc3)c2cc1OC [Cabozantinib] (10 nM) | 97.8
Oc1nc(-c2ccc(C(F)(F)F)cc2)nc2c1CSCC2 [XAV-939] (100 nM) | 92
CN(N=O)C(=O)N[C@@H](C=O)[C@@H](O)[C@H](O)[C@H](O)CO [Streptozocin] (100 nM) | 98.8
Cn1c(Nc2ccc(C(F)(F)F)cc2)nc2cc(Oc3ccnc(-c4ncc(C(F)(F)F)[nH]4)c3)ccc21 [RAF265] (10 nM) | 102
O=P1(NCCCl)OCCCN1CCCl (stereo not given) [Ifosfamide] (100 nM) | 94.8
CC1(C)NC(=O)N(c2ccc([N+](=O)[O-])c(C(F)(F)F)c2)C1=O [Nilutamide] (100 nM) | 105

The molecules below were run on MDA-MB-231 in the same assay as above. Conditions: incubation time: 72 h.
Procedure: as §1

Structure (SMILES) | normalised response [%]
CCCCCCCCCCCCCCCCCCOP(=O)([O-])OC1CC[N+](C)(C)CC1 [Perifosine] (25 nM) | 105
C=C(c1ccc(C(=O)O)cc1)c1cc2c(cc1C)C(C)(C)CCC2(C)C [Bexarotene] (100 nM) | 101
CS(=O)(=O)c1ccc(C2=C(c3ccccc3)C(=O)OC2)cc1 [Rofecoxib] (100 nM) | 106
COc1cc2nccc(Oc3ccc(NC(=O)C4(C(=O)Nc5ccc(F)cc5)CC4)cc3)c2cc1OC [Cabozantinib] (10 nM) | 99.3
Oc1nc(-c2ccc(C(F)(F)F)cc2)nc2c1CSCC2 [XAV-939] (100 nM) | 90.9
CN(N=O)C(=O)N[C@@H](C=O)[C@@H](O)[C@H](O)[C@H](O)CO [Streptozocin] (100 nM) | 112
Cn1c(Nc2ccc(C(F)(F)F)cc2)nc2cc(Oc3ccnc(-c4ncc(C(F)(F)F)[nH]4)c3)ccc21 [RAF265] (10 nM) | 110
O=P1(NCCCl)OCCCN1CCCl (stereo not given) [Ifosfamide] (100 nM) | 91.8
CC1(C)NC(=O)N(c2ccc([N+](=O)[O-])c(C(F)(F)F)c2)C1=O [Nilutamide] (100 nM) | 101

These molecules were tested on BT-549 in the same assay as above. Conditions: incubation time: 72 h.
Procedure: as §1

Structure (SMILES) | normalised response [%]
CCCCCCCCCCCCCCCCCCOP(=O)([O-])OC1CC[N+](C)(C)CC1 [Perifosine] (25 nM) | 101
C=C(c1ccc(C(=O)O)cc1)c1cc2c(cc1C)C(C)(C)CCC2(C)C [Bexarotene] (100 nM) | 105
CS(=O)(=O)c1ccc(C2=C(c3ccccc3)C(=O)OC2)cc1 [Rofecoxib] (100 nM) | 106
COc1cc2nccc(Oc3ccc(NC(=O)C4(C(=O)Nc5ccc(F)cc5)CC4)cc3)c2cc1OC [Cabozantinib] (10 nM) | 102
Oc1nc(-c2ccc(C(F)(F)F)cc2)nc2c1CSCC2 [XAV-939] (100 nM) | 103
CN(N=O)C(=O)N[C@@H](C=O)[C@@H](O)[C@H](O)[C@H](O)CO [Streptozocin] (100 nM) | 100
Cn1c(Nc2ccc(C(F)(F)F)cc2)nc2cc(Oc3ccnc(-c4ncc(C(F)(F)F)[nH]4)c3)ccc21 [RAF265] (10 nM) | 99.5
O=P1(NCCCl)OCCCN1CCCl (stereo not given) [Ifosfamide] (100 nM) | 102
CC1(C)NC(=O)N(c2ccc([N+](=O)[O-])c(C(F)(F)F)c2)C1=O [Nilutamide] (100 nM) | 101

These molecules were tested on CAL-148 in the same assay as above. Conditions: incubation time: 72 h.
Procedure: as §1

Structure (SMILES) | normalised response [%]
CCCCCCCCCCCCCCCCCCOP(=O)([O-])OC1CC[N+](C)(C)CC1 [Perifosine] (25 nM) | 88.8
C=C(c1ccc(C(=O)O)cc1)c1cc2c(cc1C)C(C)(C)CCC2(C)C [Bexarotene] (100 nM) | 101
CS(=O)(=O)c1ccc(C2=C(c3ccccc3)C(=O)OC2)cc1 [Rofecoxib] (100 nM) | 109
COc1cc2nccc(Oc3ccc(NC(=O)C4(C(=O)Nc5ccc(F)cc5)CC4)cc3)c2cc1OC [Cabozantinib] (10 nM) | 110
Oc1nc(-c2ccc(C(F)(F)F)cc2)nc2c1CSCC2 [XAV-939] (100 nM) | 101
CN(N=O)C(=O)N[C@@H](C=O)[C@@H](O)[C@H](O)[C@H](O)CO [Streptozocin] (100 nM) | 107
Cn1c(Nc2ccc(C(F)(F)F)cc2)nc2cc(Oc3ccnc(-c4ncc(C(F)(F)F)[nH]4)c3)ccc21 [RAF265] (10 nM) | 113
O=P1(NCCCl)OCCCN1CCCl (stereo not given) [Ifosfamide] (100 nM) | 92
CC1(C)NC(=O)N(c2ccc([N+](=O)[O-])c(C(F)(F)F)c2)C1=O [Nilutamide] (100 nM) | 119

Each molecule was assayed on HDQ-P1 in the same assay as above. Conditions: incubation time: 72 h.
Procedure: as §1

Structure (SMILES) | normalised response [%]
CCCCCCCCCCCCCCCCCCOP(=O)([O-])OC1CC[N+](C)(C)CC1 [Perifosine] (25 nM) | 108
C=C(c1ccc(C(=O)O)cc1)c1cc2c(cc1C)C(C)(C)CCC2(C)C [Bexarotene] (100 nM) | 104
CS(=O)(=O)c1ccc(C2=C(c3ccccc3)C(=O)OC2)cc1 [Rofecoxib] (100 nM) | 98.7
COc1cc2nccc(Oc3ccc(NC(=O)C4(C(=O)Nc5ccc(F)cc5)CC4)cc3)c2cc1OC [Cabozantinib] (10 nM) | 93.5
Oc1nc(-c2ccc(C(F)(F)F)cc2)nc2c1CSCC2 [XAV-939] (100 nM) | 106
CN(N=O)C(=O)N[C@@H](C=O)[C@@H](O)[C@H](O)[C@H](O)CO [Streptozocin] (100 nM) | 107
Cn1c(Nc2ccc(C(F)(F)F)cc2)nc2cc(Oc3ccnc(-c4ncc(C(F)(F)F)[nH]4)c3)ccc21 [RAF265] (10 nM) | 99.2
O=P1(NCCCl)OCCCN1CCCl (stereo not given) [Ifosfamide] (100 nM) | 98.9
CC1(C)NC(=O)N(c2ccc([N+](=O)[O-])c(C(F)(F)F)c2)C1=O [Nilutamide] (100 nM) | 102

Each molecule was assayed on CAL-120 in the same assay as above. Conditions: incubation time: 72 h.
Procedure: as §1

Structure (SMILES) | normalised response [%]
CCCCCCCCCCCCCCCCCCOP(=O)([O-])OC1CC[N+](C)(C)CC1 [Perifosine] (25 nM) | 109
C=C(c1ccc(C(=O)O)cc1)c1cc2c(cc1C)C(C)(C)CCC2(C)C [Bexarotene] (100 nM) | 104
CS(=O)(=O)c1ccc(C2=C(c3ccccc3)C(=O)OC2)cc1 [Rofecoxib] (100 nM) | 104
COc1cc2nccc(Oc3ccc(NC(=O)C4(C(=O)Nc5ccc(F)cc5)CC4)cc3)c2cc1OC [Cabozantinib] (10 nM) | 98
Oc1nc(-c2ccc(C(F)(F)F)cc2)nc2c1CSCC2 [XAV-939] (100 nM) | 96.3
CN(N=O)C(=O)N[C@@H](C=O)[C@@H](O)[C@H](O)[C@H](O)CO [Streptozocin] (100 nM) | 109
Cn1c(Nc2ccc(C(F)(F)F)cc2)nc2cc(Oc3ccnc(-c4ncc(C(F)(F)F)[nH]4)c3)ccc21 [RAF265] (10 nM) | 107
O=P1(NCCCl)OCCCN1CCCl (stereo not given) [Ifosfamide] (100 nM) | 94.3
CC1(C)NC(=O)N(c2ccc([N+](=O)[O-])c(C(F)(F)F)c2)C1=O [Nilutamide] (100 nM) | 102

The molecules below were run on HCC1143 in the same assay as above. Conditions: incubation time: 72 h.
Procedure: as §1

Structure (SMILES) | normalised response [%]
CCCCCCCCCCCCCCCCCCOP(=O)([O-])OC1CC[N+](C)(C)CC1 [Perifosine] (25 nM) | 101
C=C(c1ccc(C(=O)O)cc1)c1cc2c(cc1C)C(C)(C)CCC2(C)C [Bexarotene] (100 nM) | 104
CS(=O)(=O)c1ccc(C2=C(c3ccccc3)C(=O)OC2)cc1 [Rofecoxib] (100 nM) | 108
COc1cc2nccc(Oc3ccc(NC(=O)C4(C(=O)Nc5ccc(F)cc5)CC4)cc3)c2cc1OC [Cabozantinib] (10 nM) | 99.2
Oc1nc(-c2ccc(C(F)(F)F)cc2)nc2c1CSCC2 [XAV-939] (100 nM) | 104
CN(N=O)C(=O)N[C@@H](C=O)[C@@H](O)[C@H](O)[C@H](O)CO [Streptozocin] (100 nM) | 106
Cn1c(Nc2ccc(C(F)(F)F)cc2)nc2cc(Oc3ccnc(-c4ncc(C(F)(F)F)[nH]4)c3)ccc21 [RAF265] (10 nM) | 102
O=P1(NCCCl)OCCCN1CCCl (stereo not given) [Ifosfamide] (100 nM) | 99.7
CC1(C)NC(=O)N(c2ccc([N+](=O)[O-])c(C(F)(F)F)c2)C1=O [Nilutamide] (100 nM) | 105

The molecules below were run on HCC1599 in the same assay as above. Conditions: incubation time: 72 h.
Procedure: as §1

Structure (SMILES) | normalised response [%]
CCCCCCCCCCCCCCCCCCOP(=O)([O-])OC1CC[N+](C)(C)CC1 [Perifosine] (25 nM) | 101
C=C(c1ccc(C(=O)O)cc1)c1cc2c(cc1C)C(C)(C)CCC2(C)C [Bexarotene] (100 nM) | 90.8
CS(=O)(=O)c1ccc(C2=C(c3ccccc3)C(=O)OC2)cc1 [Rofecoxib] (100 nM) | 99
COc1cc2nccc(Oc3ccc(NC(=O)C4(C(=O)Nc5ccc(F)cc5)CC4)cc3)c2cc1OC [Cabozantinib] (10 nM) | 113
Oc1nc(-c2ccc(C(F)(F)F)cc2)nc2c1CSCC2 [XAV-939] (100 nM) | 92.3
CN(N=O)C(=O)N[C@@H](C=O)[C@@H](O)[C@H](O)[C@H](O)CO [Streptozocin] (100 nM) | 104
Cn1c(Nc2ccc(C(F)(F)F)cc2)nc2cc(Oc3ccnc(-c4ncc(C(F)(F)F)[nH]4)c3)ccc21 [RAF265] (10 nM) | 116
O=P1(NCCCl)OCCCN1CCCl (stereo not given) [Ifosfamide] (100 nM) | 101
CC1(C)NC(=O)N(c2ccc([N+](=O)[O-])c(C(F)(F)F)c2)C1=O [Nilutamide] (100 nM) | 118

Each molecule was assayed on CAL-85-1 in the same assay as above. Conditions: incubation time: 72 h.
Procedure: as §1

Structure (SMILES) | normalised response [%]
CCCCCCCCCCCCCCCCCCOP(=O)([O-])OC1CC[N+](C)(C)CC1 [Perifosine] (25 nM) | 98.5
C=C(c1ccc(C(=O)O)cc1)c1cc2c(cc1C)C(C)(C)CCC2(C)C [Bexarotene] (100 nM) | 105
CS(=O)(=O)c1ccc(C2=C(c3ccccc3)C(=O)OC2)cc1 [Rofecoxib] (100 nM) | 102
COc1cc2nccc(Oc3ccc(NC(=O)C4(C(=O)Nc5ccc(F)cc5)CC4)cc3)c2cc1OC [Cabozantinib] (10 nM) | 103
Oc1nc(-c2ccc(C(F)(F)F)cc2)nc2c1CSCC2 [XAV-939] (100 nM) | 99.6
CN(N=O)C(=O)N[C@@H](C=O)[C@@H](O)[C@H](O)[C@H](O)CO [Streptozocin] (100 nM) | 104
Cn1c(Nc2ccc(C(F)(F)F)cc2)nc2cc(Oc3ccnc(-c4ncc(C(F)(F)F)[nH]4)c3)ccc21 [RAF265] (10 nM) | 99.6
